Measurements from patent US6403831B1, “Substituted benzylidene indenyl formamides, acetamides and propionamides” (Cell Pathways, Inc., priority 1996, dated 2002).
pEC50, pIC50: −log10 of the molar value. Marks after values point to notes of the source that are not given here.

What was measured:
[1] = system: human colon carcinoma cell line, SW-480; experiment: Growth inhibition, Sulforhodamine B (SRB) protein binding assay; assay type: cell-based; conditions: SW-480 cell line, six days continuous exposure
Description: These compounds were assayed for their growth inhibitory activity on the human colon carcinoma cell line, SW-480 obtained from ATCC (Rockville, Md.), to ascertain the degree of growth inhibition. Growth inhibition of this cell line is indicative of a benefit on precancerous lesions and neoplasms. The cell line and growth assay employed for these experiments are well characterized, and are used to evaluate the anti-neoplastic properties of NSAIDs. The assay is used by the United States National Cancer Institute in its screening program for new anti-cancer drugs.
Drug stock solutions were made in 100% DMSO then diluted with RPMI media for cell culture testing. All drug solutions were prepared fresh on the day of testing. The cultured cells were obtained at passage #99 and grown in RPMI media supplemented with 5% fetal calf serum, and 2 mM glutamine, 100 U/ml penicillin, 100 U/ml streptomycin, and 0.25 μg/ml amphotericin. The cultures were maintained in a humidified atmosphere of 95% air and 5% CO2 at 37° C. The cultures were passaged at preconfluent densities using a solution of 0.05% trypsin and 0.53 mM EDTA. Cells were plated at 1000 cells/well for 96 well flat-bottom microtiter plates.
Tumor cell growth inhibition was assessed using the Sulforhodamine B (SRB) protein binding assay. In this assay, tumor cells were plated in 96-well plates and treated with drug-containing media for six days (continuous exposure). For each plate, 6 wells were designated as no treatment controls, six wells as vehicle (0.1% DMSO) controls, and the remaining wells for drug dilutions with three wells per drug concentration. At the end of the exposure period, the cells were fixed and stained with sulforhodamine B, a protein binding dye. The dye was then solubilized, and the optical density of the resulting solution was determined on a 96-well plate reader. The mean dye intensity of the treated wells was then divided by the mean dye intensity in the control wells (6 wells of each) to determine the effect of the drug on the cells. Dye intensity is proportional to the number of cells or amount of protein per well. The resultant “percent inhibition” value then represents the degree of growth inhibition caused by the drug.
For each experiment, an IC50 value was determined and used for comparative purposes. This value is equivalent to the concentration of drug needed to inhibit tumor cell growth by 50%. IC50 values were obtained graphically by connecting the mean values for each drug concentration tested. Each experiment included at least three wells per drug concentration. Concentration was plotted on a log scale on the X-axis.

COX I = biological target: T1, COX I (Ovis aries, UniProt P05979); experiment: Cyclooxygenase (COX) inhibition, purified COX; assay type: biochemical; conditions: purified COX from ram seminal vesicles; for COX I % Inhibition (values marked *): values marked *: 1000 μM test compound
T1 construct: The COX was purified form ram seminal vesicles; from tissue; host or cells: ram seminal vesicles
T1 sequence (P05979 25-600): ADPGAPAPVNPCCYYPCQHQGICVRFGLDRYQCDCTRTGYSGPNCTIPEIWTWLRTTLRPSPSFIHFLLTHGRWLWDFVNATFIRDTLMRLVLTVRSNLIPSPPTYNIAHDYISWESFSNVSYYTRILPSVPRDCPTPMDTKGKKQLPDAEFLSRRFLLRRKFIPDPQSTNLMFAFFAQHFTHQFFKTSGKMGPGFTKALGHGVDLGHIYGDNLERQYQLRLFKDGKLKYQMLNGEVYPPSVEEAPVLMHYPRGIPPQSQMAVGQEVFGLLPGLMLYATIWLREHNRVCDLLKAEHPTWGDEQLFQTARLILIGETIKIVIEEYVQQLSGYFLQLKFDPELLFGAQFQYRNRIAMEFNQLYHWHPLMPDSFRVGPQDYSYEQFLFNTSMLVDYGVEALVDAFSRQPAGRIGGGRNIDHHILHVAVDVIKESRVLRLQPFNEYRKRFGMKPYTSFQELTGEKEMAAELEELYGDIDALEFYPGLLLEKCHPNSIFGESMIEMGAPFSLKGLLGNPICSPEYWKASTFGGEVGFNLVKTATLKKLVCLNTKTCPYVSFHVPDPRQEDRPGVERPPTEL
Description: Compounds of this invention, as well as a positive control, sulindac sulfide were to determine whether they inhibited the production of cyclooxygenase (see Table 5 below).
COX catalyzes the formation of prostaglandins and thromboxane by the oxidative metabolism of arachidonic acid. The compounds of this invention were evaluated for inhibitory effects on purified COX. The COX was purified form ram seminal vesicles, as described by Boopathy, R. and Balasubramanian, J. 239:371-377, 1988. COX activity was assayed as described by Evans, A. T., et al., “Actions of cannabis constituents on enzymes of arachidonate metabolism anti-flammatory potential,” Biochem. Pharmacol., 36:2035-2037, 1987. Briefly, purified COX was incubated with arachidonic acid (100 μM) for 2.0 min at 37° C. in the presence or absence of test compounds. The assay was terminated buy the addition of TCA, and COX activity was determined by absorbance at 530 nm.

[2] = system: HT-29 human colon carcinoma cells; experiment: Apoptosis by morphology (acridine orange/ethidium bromide, condensed chromatin); assay type: cell-based; conditions: HT-29 cells
Description: Apoptosis was measured using an assay of cell death based on morphological characteristics of apoptotic cells (i.e., condensed chromatin). Drug preparation and cell culture conditions were the same as for the SRB assay described above, except that HT-29 human colon carcinoma cells were employed/Confluent cultures were established in 12.5 cm^2 flasks by plating 0.5×10^6 cells/flask. The cultures were assayed for apoptosis by fluorescent microscopy following labeling with acridine orange and ethidium bromide. Floating and attached cells were collected by trypsinization and washed three times in PBS. One ml aliquots were centrifuged (3 g). The pellet was resuspended in 25 μl media and 1 μl of a dye mixture containing 100 μg/ml acridine orange and 100 μg/ml ethidium bromide prepared in PBS and mixed gently. Ten μl of mixture was placed on a microscope slide and covered with a 22 mm^2 coverslip and examined under 40×dry objectives using epillumination and filter combination.
An observer blinded to the identity of the treatments scored at least 100 cells per sample. Apoptotic cells were identified by nuclear condensation of chromatin stained by the acridine orange or ethidium bromide.

[3] = system: SW-480 colon adenocarcinoma cells; experiment: Apoptosis by DNA fragmentation (Cell Death Detection ELISA plus); assay type: cell-based, human; conditions: SW-480 cells, 48 hrs; for pEC50: by software or estimated from effective concentration range; for DNA Fragmentation FS (100 μM): fold stimulation FS=ODmax/ODveh
Description: Apoptosis was also measured based on the amount of fragmented DNA contained in cell lysates. Briefly, SW-480 colon adenocarcinoma cells were plated in 96-well microtitre plates (“MTP”) at a density of 10K cells/well in 180 μl and incubated for 24 hrs. Cells were then treated with 20 μl aliquots of appropriately diluted compound, and allowed to incubate for an additional 48 hrs.
After the incubation, samples were prepared according to the following steps. The MTP was centrifuged (15 min., 1000 rpm) and the supernatant was carefully removed by fast inversion of the MTP. The cell pellents in each well were then resuspended in ^200 μl lysis buffer and incubated for 45 min. at room temperature to lyse the cells. The lysates were then centrifuged (15 min., 1000 rpm) and 20 μl aliquots of the supernatant (=cytoplasmic fraction) were transferred into the streptavidin coated MTP for analysis. Care was taken not to shake the lysed pellets in the MTP (=cell nucleii containing high molecular weight, unfragmented DNA). Samples were analyzed immediately, because storage at 4 C or −20 C reduces the ELISA-signals.
Samples were then processed according to a DNA fragmentation assay protocol, and dose-response curves were generated based on optical density readings. Quantification of DNA was done by a commercially available photometric enzyme-immunoassay manufactured by Mannheim-Boehringer under the name “Cell Death Detection ELISA^plus”. The assay is based on a quantitative sandwich-enzyme-immunoassay-principle using mouse monoclonal antibodies directed against DNA and histones, respectively. This allows the specific determination of mono and oligonucleosomes in the cytoplasmatic fraction of cell lysates. In brief, the assay procedure is as follows. The sample (cell-lysate, serum, culture-supernatant etc.) is placed into a streptavidin-coated MTP. Subsequently, a mixture of anti-histone-biotin and anti-DNA-POD are added and incubated for 2 hours. During the incubation period, the anti-histone antibody binds to the histone-component of the nucleosomes and simultaneously fixes the immunocomplex to the streptavidin-coated MTP via its biotinylation. Additionally, the anti-DNA-POD antibody reacts with the DNA component of the nucleosomes. After removal of unbound antibodies by a washing step, the amount of nucleosomes is quantified by the POD retained in the immunocomplex. POD is determined photometrically with ABTS® (2,2′-Azino-di[3-ethylbenzthiazolin-sulfonat])* as substrate.
Fold stimulation (FS=ODmax/ODveh), an indicator of apoptotic response, was determined for each compound tested. EC50 values were determined either specifically by data analysis software, or by estimates based on the effective concentration range of each compound (ECR=min. effective dose-min. dose to peak effect). These FS and EC50 values for the tested compounds are listed above in Table 6.

Structure (SMILES) | pIC50 [1] | COX I % Inhibition (values marked *) (COX I) | Morphology % Apoptotic Cells (1 μM) [2] [%] | pEC50 [3] | DNA Fragmentation FS (100 μM) [3] | COX I % Inhibition (100 μM) (COX I; 100 μM test compound, arachidonic acid 100 μM) [%]
COc1cc(/C=C2/C(C)=C(CC(=O)N[C@@H](O)Cc3ccccc3)c3cc(F)ccc32)cc(OC)c1OC [Example 46, (Z)-5-fluoro-2-methyl-1-(3,4,5-trimethoxybenzylidene)-3-(N-(S)-1-hydroxy-2-phenylethyl)-idenylacetamide] | < 5.00 | 98* % | 20 | < 5.00 | 4.8 | 
COc1cc(/C=C2/C(C)=C(CC(=O)NCc3ccccc3Br)c3cc(F)ccc32)cc(OC)c1OC [Example 33, (Z)-5-fluoro-2-methyl-1-(3,4,5-trimethoxybenzylidene)-3-(N-2-bromobenzyl)-indenylacetamide] | 5.74 | 49* % | 28 | 5.40 | 3.7 | 
COc1cc(/C=C2/C(C)=C(CC(=O)N(Cc3ccccc3)c3ccccn3)c3cc(F)ccc32)cc(OC)c1OC [Example 38, (Z)-5-fluoro-2-methyl-1-(3,4,5-trimethoxybenzylidene)-3-(N-benzyl-N-(2-pyridinyl))-indenylacetamide] | < 5.00 | 35* % | 20 | < 5.00 | <2 | 
COc1cc(/C=C2/C(C)=C(CC(=O)N[C@H](C)c3ccccc3)c3cc(F)ccc32)cc(OC)c1OC [Example 42, (Z)-5-fluoro-2-methyl-1-(3,4,5-trimethoxybenzylidene)-3-(N-(R)-1-phenethyl)-indenylacetamide] | 6.16 | 49* % | <20 | 5.52 | 3.8 | 
COc1cc(/C=C2/C(C)=C(CC(=O)NCCCN(C)C)c3cc(F)ccc32)cc(OC)c1OC [Example 44, (Z)-5-fluoro-2-methyl-1-(3,4,5-trimethoxybenzylidene)-3-(N-3-dimethylaminopropyl)-idenylacetamide] | < 5.00 | 51* % | 25 | < 5.00 | 2.7 | 
COc1cc(/C=C2/C(C)=C(CC(=O)N(CCN(C)C)Cc3ccccc3)c3cc(F)ccc32)cc(OC)c1OC [Example 36, (Z)-5-fluoro-2-methyl-1-(3,4,5-trimethoxybenzylidene)-3-(N-benzyl-N-2-dimethylaminoethyl)-indenylacetamide] | 5.52 | 72* % | 22 | 8.00 | 5.3 | 
COc1cc(/C=C2/C(C)=C(CC(=O)NCc3c(F)c(F)c(F)c(F)c3F)c3cc(F)ccc32)cc(OC)c1OC [Example 51, (Z)-5-fluoro-2-methyl-1-(3,4,5-trimethoxybenzylidene)-3-(N-pentafluorobenzyl)-idenylacetamlde] | 5.65 | <25* % | 40 | < 5.00 | <2 | 
COc1ccccc1CNC(=O)CC1=C(C)/C(=C/c2cc(OC)c(OC)c(OC)c2)c2ccc(F)cc21 [Example 15, (Z)-5-fluoro-2-methyl-1-(3,4,5-trimethoxybenzylidene)-3-(N-2-methoxybenzyl)-indenylacetamide] | 6.41 |  | 72 | 6.52 | 2.1 | <25
